US8859284B2, “Delivery of nanoparticles to neurons” (The United States of America, as represented by the …, priority 2009, dated 2014)
Like-named read-outs stand apart in the source and are kept apart here. Square brackets hold non-standard residues; d marks the D form. Ends that are not written are not given here. Peptide text beside a SMILES is read from it. * marks the point of attachment. Palmitoyl = CCCCCCCCCCCCCCCC(=O)*; Dap = NC[C@H](N)C(=O)O; Aib = CC(C)(N)C(=O)O

Legend:
HEK 293T/17 cells [1] = system: HEK 293T/17 cells
Procedure: Cellular toxicity was assessed using the CellTiter 96 Cell Proliferation Assay (Promega, Madison Wis.) according to the manufacturer's instructions. This assay is based upon the conversion of a tetrazolium substrate to a formazan product by viable cells at the assay end point (see reference 24). Cells (1×10^4 cells/well) were cultured in 96-well microtiter plates in complete growth medium in the presence of increasing concentrations of QDs, free peptide or polymer, or QDs in complex with peptide or polymer. In each case, the materials were incubated with the cells for the time required for efficient QD uptake. The materials were subsequently replaced with complete growth medium and the cells were cultured for 72 hours.

[2] = molecular target: T1, Palmitoyl Protein Thioesterase 1 (PPT1) (Homo sapiens, UniProt P50897); settings: competitive inhibitors; acidic environments; cited from earlier work
T1 sequence (P50897 28-306): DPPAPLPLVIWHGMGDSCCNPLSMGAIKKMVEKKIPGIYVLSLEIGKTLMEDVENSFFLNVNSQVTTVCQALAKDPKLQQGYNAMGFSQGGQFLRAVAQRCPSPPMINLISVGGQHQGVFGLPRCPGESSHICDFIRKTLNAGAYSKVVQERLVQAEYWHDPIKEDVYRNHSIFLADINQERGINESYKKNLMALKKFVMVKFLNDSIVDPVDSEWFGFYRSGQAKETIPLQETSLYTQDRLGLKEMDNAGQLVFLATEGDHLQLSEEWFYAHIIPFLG

HEK 293T/17 cells [3] = assay: FRET monitoring of intracellular stability of polyhistidine-QD association; type: cell-based, Human; settings: over three days, no QDs present
Procedure: (§1) Merged images were generated using Adobe PhotoShop.
To investigate this issue, QD-peptide conjugates were prepared that engaged in FRET and their intracellular interactions were monitored over time. 510 nm DHLA-capped QDs were first assembled with an average of ˜2 Cy3-labeled His6-peptides and then the CPP was added to form the full conjugate (schematic in FIG. 3A). Due to the peptide's small size and proximity of the Cy3 acceptor to the nanocrystal surface, this valence results in a ca. 40% quenching of the QD PL by FRET. The resulting conjugates were delivered to HEK 293T/17 cells and the cells were cultured for three days. QD-donor and Cy3-acceptor FRET interactions over time within the cells were measured by exciting the QD and collecting side-by-side split fluorescence images using the DualView system and deconvoluting the subsequent intensity data. […] When the Cy3/QD emission ratio (normalized and corrected for direct Cy3-acceptor excitation) was calculated a gradual decrease was observed over time, culminating in a 36% decrease over three days (FIG. 3C). […] When Cy3 was delivered to the endosomes as a Cy3-labeled transferrin conjugate (no QDs present), the fluorescence output of the dye decreased approximately 34% over the same time period, in excellent agreement with the decrease observed in the above QD-CPP-Cy3-labeled peptide constructs (FIG. 3D). […]

HEK 293T/17 cells [4] = settings: cited from earlier work
HEK 293T/17 cells [5] = assay: Cellular delivery of QDs, intracellular fate by fluorescence microscopy; settings: summary of QD delivery strategies; some agents also tested in COS-1
Procedure: Human embryonic kidney (HEK 293T/17) and African green monkey kidney (COS-1) cell lines (ATCC, Manassas, Va.) were cultured in complete growth medium (Dulbecco's Modified Eagle's Medium (DMEM; purchased from ATCC)) supplemented with 1% (v/v) antibiotic/antimycotic and 10% (v/v) heat inactivated fetal bovine serum (ATCC). Cells were cultured in T-25 flasks and incubated at 37° C. under 5% CO2 atmosphere and a subculture was performed every 3-4 days (see reference 13).
The QD delivery experiments were performed on adherent cells seeded into the wells of Lab-Tek 8-well chambered #1 borosilicate coverglass (Nalge Nunc, Rochester, N.Y.) coated with 2 μg/mL fibronectin. For electroporation and nucleofection, adherent cells were harvested by trypsinization prior to performing QD delivery to cells in suspension. Cells were then seeded to chambered coverglass wells and imaged after cell attachment. The endosomal marker AlexaFluor647-transferrin was included as indicated in the text. For imaging, cells were washed with phosphate buffered saline (PBS, 137 mM NaCl, 10 mM phosphate, 3 mM KCl, pH 7.4), fixed with 3.7% paraformaldehyde in PBS and nuclei were stained with DAPI (Sigma) unless otherwise indicated.
For electroporation, cells were harvested by trypsinization and recovered for 1 hour in complete growth medium, pelleted, and resuspended in PBS. 510 nm DHLA-PEG QDs (0.5 μM final concentration) were mixed with 1×10^4 cells to a final volume of 100 μL in PBS in a 0.2 mm electroporation cuvette. The cuvette was subjected to 100 V for a 20 ms pulse using a GenePulser XCell electroporator (Bio-Rad, Hercules, Calif.). Cells were resuspended in complete growth medium, seeded into fibronectin-coated 8-well chambered coverglass, fixed and imaged after 24 hrs. For nucleofection delivery, 1×10^6 cells were harvested and resuspended in 100 μL of NUCLEOFECTOR reagent (Amaxa, Gaithersburg, Md.). 510 nm DHLA-PEG QDs were included at a final concentration of 0.4 μM. The cell/QD/reagent mixture was pulsed in the NUCLEOFECTOR using a preset protocol adapted for each specific cell line (20, 21). Cells were cultured and imaged as described for electroporation.
The INFLUX cell-loading reagent mediates the intracellular release of materials internalized via pinocytic vesicles by delivering the materials to cells in a hypertonic medium followed by the transfer of the cells to a hypotonic medium to induce vesicle disruption (see reference 22). 510 nm DHLA-PEG QDs were diluted to a final concentration of 300-800 nM in the supplied hypertonic delivery media according to manufacturer's instructions and incubated on the cells for 30 min at 37° C. The hypertonic medium was exchanged for hypotonic medium (serum-free culture medium diluted by 40% with deionized water) and incubated on the cells for 3 min. The cells were then recovered in complete growth medium for 30 min and cultured for various lengths of time prior to washing and fixation for imaging.
520 nm QDs with a 1:1 mixed surface of DHLA:DHLA-PEG were incubated with LIPOFECTAMINE 2000 for 20 min in serum free medium at a ratio of 1 μL LIPOFECTAMINE 2000 per 1.5 pmol QD. The complexes, at a final QD concentration of 75 nM, were incubated with the cells for 4 hours, removed and replaced with complete growth medium. The cells were then cultured for 24-36 h prior to washing and fixation.
PEI was incubated with 520 nm mixed surface DHLA:DHLA-PEG QDs in serum free medium at a ratio of 10 μg PEI per 1 pmol QD for 15 min. […] The complexes were then diluted into serum free media to a final QD concentration of 75-100 nM, incubated with cells for 2 h and removed. Cells were then cultured in complete media for 24-36 h, washed and fixed.
A stock solution of 520 nm DHLA:DHLA-PEG QDs (1 μM in 0.1 M borate buffer, pH 8.9) was diluted to 0.5 μM in HEPES (4-(2-hydroxyethyl)-1-piperazineethanesulfonic acid, pH 8.2).

HeLa cells = assay: QD uptake and endosomal escape in HeLa cells; type: cell-based; settings: 163 HeLa cells, Palm-1 conjugated to a QD
Procedure: The Palm-1 peptide was also tested in HeLa cells, and found to be very effective in promoting endosomal escape.

COS-1 cells = assay: Cellular uptake and endosomal escape of QD-peptide assemblies, fluorescence microscopy; type: cell-based, African green monkey; settings: COS1 cells
Procedure: as §1
The peptide assemblies were incubated with COS-1 cells for 1 hr, removed, and the cells were subsequently cultured for 24 hr prior to fixation. An AlexaFluor 647-transferrin (Tf) conjugate was included during the incubation to label the vesicles of the endocytic pathway. Cell nuclei were stained with DAPI.

[6] = system: COS-1 and HEK 293T/17 cells; assay: Cellular delivery of QDs, result stated for both cell lines together; type: cell-based, African green monkey; Human; settings: for intracellular distribution of QDs: both cell lines; for degree of endocytic uptake: compared with Palm-1, 72 h observation
From the text: as §1

Molecule: CC(C)C[C@H](NC(=O)CNC(=O)[C@H](Cc1c[nH]c2ccccc12)NC(=O)[C@H](Cc1c[nH]cn1)NC(=O)[C@H](Cc1c[nH]cn1)NC(=O)[C@H](Cc1c[nH]cn1)NC(=O)[C@H](Cc1c[nH]cn1)NC(=O)[C@H](Cc1c[nH]cn1)NC(=O)[C@@H](N)Cc1c[nH]cn1)C(=O)N[C@@H](C)C(=O)NC(C)(C)C(=O)N[C@@H](CO)C(=O)NCC(=O)N1CCC[C@H]1C(=O)N[C@@H](CCCCN)C(=O)N[C@@H](CCCCN)C(=O)N[C@@H](CCCCN)C(=O)N[C@@H](CCCNC(=N)N)C(=O)N[C@@H](CCCCN)C(=O)N[C@H](C(=O)O)C(C)C [NLS peptide, reference compound] (H-HHHHHHWGLA[Aib]SGPKKKRKV-OH)
- Toxicity (HEK 293T/17 cells [1]): minimally toxic

Molecule: AcG(Pal)DapVKIKK
- inhibition of palmitoyl thioesterase [2]: low micromolar affinity

Molecule: Cy3-labeled transferrin conjugate: Cy3 delivered to endosomes as labeled transferrin, no QDs
- decrease of fluorescence output of the Cy3 dye (HEK 293T/17 cells [3]): approximately 34%

Molecule: GDap(Pal)VKIKK
- inhibition of palmitoyl thioesterase [2]: low micromolar range

Molecule: R9GGLA(Aib)SGWKH6 [CPP peptide]
- Toxicity (HEK 293T/17 cells [4]): minimally toxic
- Quantum Dot Fate (HEK 293T/17 cells [5]): Endosomal, QDs punctate

Molecule: WGDapaVKIKK(P)9GG(H)6 [JB577]
- Toxicity (HEK 293T/17 cells [1]): minimally toxic
- QD uptake (HeLa cells): 90%
- endosomal escape of the cells with uptake (HeLa cells): 86%
- endosomal escape of the total (HeLa cells): 77%
- Quantum Dot Fate (HEK 293T/17 cells [5]): Cytosolic, QDs dispersed
- % Escape in cells with uptake (COS-1 cells; QD-peptide assemblies): 77%
- Overall uptake/escape: uptake (COS-1 cells; first word of the cell): High
- Overall uptake/escape: escape (COS-1 cells; second word of the cell): high

Molecule: WGDapaVKIKKGL(A)4GG(H)6 (WG[Dap](Palmitoyl)VKIKKGLAAAAGGHHHHHH) [Palm-2, No (Pro)9, short linker]
- intracellular distribution of QDs [6]: remained completely sequestered within endosomes
- degree of endocytic uptake [6]: significant reduction in the degree of endocytic uptake

Molecule: WGDapaVKIKKGLPAAGG(H)6 [Palm-3]
- intracellular distribution of QDs [6]: remained completely sequestered within endosomes
- degree of endocytic uptake [6]: significant reduction in the degree of endocytic uptake
